{"source": "patent US6316451A", "about": "“Heterocyclyl anthracyclinone derivatives” (Pharmacia & Upjohn S.p.A., priority 1998, dated 2001)"}
{"molecular_target": "T1, Aβ1-40 peptide monomer (Homo sapiens, UniProt P05067)", "T1 construct": "An Aβ1-40 peptide monomer stock solution was prepared", "T1 sequence (P05067 672-711 limits assumed)": "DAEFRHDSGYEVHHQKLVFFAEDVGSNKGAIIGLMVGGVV", "experiment": "Inhibition of the seed-triggered aggregation of Aβ1-40 peptide monomer (HPLC quantitation of residual monomer)", "assay_type": "biochemical", "conditions": "50 μm test compound; 20 μM Aβ1-40 monomer; 4 μm pre-formed sonicated Aβ1-40 fibrils (seed); phosphate buffer pH 7.4, 150 mM NaCl; two hours at 37° C.", "procedure": "The compounds disclosed in the present invention interfere with the aggregation of monomeric Aβ1-40 peptide stimulated by a seed of Aβ1-40 amyloid fibrils. The activity of the compounds was assessed according to the procedure reported below.\nAn Aβ1-40 peptide monomer stock solution was prepared by dissolving the peptide in dimethylsulfoxide at a concentration of 33.33 mg/ml. The stock solution was further diluted 11.5 times with dimethylsulfoxide. This solution was then diluted with 10 mM phosphate buffer pH 7.4 containing 150 mM sodium chloride to prepare the test solution.\nTo an eppendorf tube containing 47 μl of Aβ1-40 peptide monomer solution were added 3 μl of a 830 μM water solution of the test compound containing 66.4 μM, based on the Aβ1-40 monomer content, of pre-formed sonicated Aβ1-40 fibrils: the resulting solution was 20 μM in Aβ1-40 monomer, 50 μm in the test compound and contained 4 μm, based on the Aβ1-40 monomer content, of pre-formed sonicated Aβ1-40 fibrils. The aggregation was allowed to proceed for two hours at 37° C. The suspension was then centrifuged at 15000 rpm for 15 minutes at +4° C., the supernatant was collected and the Aβ1-40 monomer was quantitated by HPLC.\nThe activity is expressed as the percent of inhibition of the aggregation of a 20 μM Aβ1-40 monomer solution stimulated by 4 μm, based on the Aβ1-40 monomer content, pre-formed sonicated Aβ1-40 fibrils.", "units": {"% INHIBITION of the aggregation of Aβ1-40 monomer": "%"}}
{"smiles": "COc1cccc2c1C(=O)c1c(O)c3c(c(O)c1C2=O)C[C@@](O)(c1csc(NCCN(C)C)n1)C[C@@H]3O", "note": "[Compound 1d, 9-Deacetyl-9-[2-(2-dimethylaminoethylamino)-thiazol-4-yl]-daunomycinone]", "% INHIBITION of the aggregation of Aβ1-40 monomer": 33.7}
{"smiles": "COc1cccc2c1C(=O)c1c(O)c3c(c(O)c1C2=O)C[C@@](O)(c1csc(N2CCN(C)CC2)n1)CC3", "note": "[Compound 1i, 7-Deoxy-9-deacetyl-9-[2-(4-methyl-piperazin-1-yl)-thiazol-4-yl]-daunomycinone]", "% INHIBITION of the aggregation of Aβ1-40 monomer": 31.7}
{"smiles": "COc1cccc2c1C(=O)c1c(O)c3c(c(O)c1C2=O)C[C@@](O)(c1csc(N2CCN(C)CC2)n1)C[C@@H]3N1CCOCC1", "note": "[Compound 1j, 7-Deoxy-7-(4-morpholinyl)-9-deacetyl-9-[2-(4-methyl-perazin-1-yl)-thiazol-4-yl]-daunomycinone]", "% INHIBITION of the aggregation of Aβ1-40 monomer": 49.2}
